In paper PMC13266999, “Designing Antibiotics with Inherent Resistance to Efflux as a Strategy to Revive Discovery against Multidrug-Resistant Pathogens” (Journal of Medicinal Chemistry, 2026):
In brackets after ≈: the same amount, converted by molar mass. Where two headings read alike, the source gives them in different places.

How the values were obtained:
K. pneumoniae = assay: MIC (microbroth dilution); assay type: cell-based, Klebsiella pneumoniae; conditions: Klebsiella pneumoniae, read-out: MIC
In short: (§1)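 Broth microdilution MICs, defined as lowest compound level without visible growth (OD600 read), on bacteria grown overnight to stationary phase then diluted. Twofold compound dilutions; some wells also received PMBN, final 30 μg/mL, to permeabilize the outer membrane.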

E. coli [1] = assay: MIC (microbroth dilution); assay type: cell-based; conditions: Escherichia coli
In short: as §1

E. coli [2] = assay: Mutation frequency and agar MIC; assay type: cell-based; conditions: NCTC 12241
Description: (§2) Mutation frequencies were performed on solid media at supra-inhibitory concentrations. First, the agar MIC was performed to account for any issues in solubility of compounds in solid media. Agar plates were prepared with 2-fold dilutions of compound.
(§3) For the mutation frequency assay, bacteria from an overnight culture were grown to mid exponential phase in liquid broth, then 100 μL was spread onto an agar plate containing compound at concentrations above the agar MIC. A Miles-Misra was also conducted on an antibiotic-free agar plate to determine the CFU/mL of the starting population. […] The mutation frequency was calculated by dividing the number of colonies on supra inhibitory con-centration plates by the starting population.

A. baumannii = assay: Mutation frequency and agar MIC; assay type: cell-based; conditions: A118
Description: as §2, §3

S. aureus [3] = assay: Mutation frequency and agar MIC; assay type: cell-based
Description: as §2, §3

WT DNA gyrase = target: T1, WT DNA gyrase (Staphylococcus aureus, UniProt P0A0K8+P20831); assay: DNA gyrase supercoiling inhibition assay; assay type: biochemical, S. aureus
T1 construct: purchased Inspiralis Ltd. (Norwich, UK)
Description: (§4) Gyrase inhibition was determined through biochemical assay kits from Inspiralis Ltd. (Norwich, UK), according to manufacturer’s instructions, and as described previously. Briefly, 1U of enzyme was incubated with 0.5 μg of relaxed […] DNA in the presence of compound in 1% DMSO for 30 min at 37 °C. A control reaction contained no compound but still contained 1% DMSO. The reactions were stopped through Stop Buffer addition and the DNA separated through addition of chloroform/iso-amyl alcohol (24;1). Samples were run on a 1% agarose gel at 75 V for 2 h, which was then stained with 1 μg/mL ethidium bromide and visualized using a NuGenius gel imager (Syngene). The intensity of the supercoiled DNA band was quantified using Syngene software, and the inhibition of the supercoiling of the DNA by the compounds was calculated.

[4] = target: T2, GyrA S84L mutant DNA gyrase (Staphylococcus aureus, UniProt P0A0K8+P20831, S84L); assay: DNA gyrase supercoiling inhibition assay; assay type: biochemical, S. aureus
T2 construct: purchased Inspiralis Ltd. (Norwich, UK)
Description: as §4

S. aureus [5] = assay: MIC (microbroth dilution); assay type: cell-based, Staphylococcus aureus; conditions: for MIC: read-out: MIC
In short: as §1

Molecule `Cc1cc(C)nc(N[C@@H]2CCN(c3c(F)cc4c(=O)c(C(=O)O)cn5c4c3OC[C@@H]5C)C2)n1` [Compound 50, (S)-10-((R)-3-((4,6-Dimethylpyrimidin-2-yl)amino)pyrrolidin-1-yl)-9-fluoro-3-methyl-7-oxo-2,3-dihydro-7H-[1,4]oxazino[2,3,4-ij]quinoline-6-carboxylic acid] has an MIC (K. pneumoniae; M6) of 2 µg/mL (≈ 4.41 µM), an MIC (K. pneumoniae; NCTC13368, NCTC 13368) of 16 µg/mL (≈ 35.3 µM) and an MIC (E. coli [1]; 319238/UR) of 32 µg/mL (≈ 70.6 µM). It also gave an MIC (E. coli [1]; LEC006) of 0.5 µg/mL (≈ 1.1 µM), an MIC (E. coli [1]; LEC007) of 0.25 µg/mL (≈ 0.551 µM) and an MIC (E. coli [1]; LEC077) of 8 µg/mL (≈ 17.6 µM). The MIC (E. coli [1]; LEC081) was 8 µg/mL (≈ 17.6 µM), the MIC (E. coli [1]; NCTC10418, NCTC 10418) was 0.125 µg/mL (≈ 0.276 µM) and the MIC (E. coli [1]; NCTC11954, NCTC 11954) was 0.25 µg/mL (≈ 0.551 µM). The MIC (E. coli [1]; NCTC12241, NCTC 12241) was 0.25 µg/mL (≈ 0.551 µM), the MIC (E. coli [1]; NCTC12923, NCTC 12923) was 1 µg/mL (≈ 2.21 µM) and the Agar MIC (E. coli [2]) was 0.25 µg/mL. For the same molecule, the Agar MIC (A. baumannii) was 0.25 µg/mL, the Agar MIC (S. aureus [3]; ATCC 9144) was 0.03 µg/mL and the Agar MIC (S. aureus [3]; NCTC 13616) was 0.5 µg/mL. The IC50 (WT DNA gyrase) was 5.56 µM, the IC50 [4] was 8.38 µM and the “fold improvement in activity compared to 46” value (S. aureus [5]) was 2–8 fold. For the same molecule, the “fold difference in MIC, SA-1199B vs SA-1199” value (S. aureus [5]; NorA-overexpressing vs WT) was “no difference”, the MIC (S. aureus [5]; Staphylococcus aureus, 1199, + 4% albumin) was 0.06 µg/mL and the MIC (S. aureus [5]; Staphylococcus aureus, 1199b, + 4% albumin) was 0.125 µg/mL. For the same molecule, the MIC (S. aureus [5]; Staphylococcus aureus, ATCC6538P, ATCC 6538P) was 0.03 µg/mL (≈ 0.0662 µM), the MIC (S. aureus [5]; Staphylococcus aureus, ATCC9144, ATCC 9144, + 4% albumin) was 0.125 µg/mL and the MIC (S. aureus [5]; Staphylococcus aureus, ATCC9144, ATCC 9144) was ≤ 0.004 µg/mL. It also gave an MIC (S. aureus [5]; Staphylococcus aureus, ATCC10390, ATCC 10390) of 0.03 µg/mL (≈ 0.0662 µM), an MIC (S. aureus [5]; Staphylococcus aureus, ATCC13709, ATCC 13709) of 0.03 µg/mL (≈ 0.0662 µM) and an MIC (S. aureus [5]; Staphylococcus aureus, ATCC19636, Smith, ATCC 19636) of 0.03 µg/mL (≈ 0.0662 µM). It also gave an MIC (S. aureus [5]; Staphylococcus aureus, ATCC27660, ATCC 27660) of 0.03 µg/mL (≈ 0.0662 µM), an MIC (S. aureus [5]; Staphylococcus aureus, ATCC29213, ATCC 29213 + 50% serum) of 1 µg/mL and an MIC (S. aureus [5]; Staphylococcus aureus, ATCC29213, ATCC 29213) of 0.03 µg/mL (≈ 0.0662 µM). For the same molecule, the MIC (S. aureus [5]; Staphylococcus aureus, ATCC 33591 / MRSA, MRSA (ATCC 33591)) was 0.03 µg/mL (≈ 0.0662 µM), the MIC (S. aureus [5]; Staphylococcus aureus, ATCC 33592 / MRSA, MRSA (ATCC 33592)) was 0.03 µg/mL (≈ 0.0662 µM) and the MIC (S. aureus [5]; Staphylococcus aureus, ATCC33594, ATCC 33594) was 0.03 µg/mL (≈ 0.0662 µM). For the same molecule, the MIC (S. aureus [5]; Staphylococcus aureus, ATCC49230, ATCC 49230) was 0.03 µg/mL (≈ 0.0662 µM), the MIC (S. aureus [5]; Staphylococcus aureus, MRSA / NRS 17 / VISA, VISA MRSA (NRS17)) was 1 µg/mL (≈ 2.21 µM) and the MIC (S. aureus [5]; Staphylococcus aureus, MRSA / NRS 22 / USA600, USA600 MRSA GISA (NRS22)) was 4 µg/mL (≈ 8.82 µM). It also gave an MIC (S. aureus [5]; Staphylococcus aureus, MRSA / NRS 71, MRSA (NRS71)) of 1 µg/mL (≈ 2.21 µM), an MIC (S. aureus [5]; Staphylococcus aureus, MRSA / NRS 100, MRSA (COL; NRS100)) of 0.03 µg/mL (≈ 0.0662 µM) and an MIC (S. aureus [5]; Staphylococcus aureus, MRSA / NRS 119, MRSA Linezolid-R (NRS119)) of 1 µg/mL (≈ 2.21 µM). It also gave an MIC (S. aureus [5]; Staphylococcus aureus, MRSA / NRS 123 / USA400, USA400 MRSA (NRS123)) of 0.03 µg/mL (≈ 0.0662 µM), an MIC (S. aureus [5]; Staphylococcus aureus, MRSA / NRS 127, LZD-NS MRSA (NRS127)) of 4 µg/mL (≈ 8.82 µM) and an MIC (S. aureus [5]; Staphylococcus aureus, MRSA / NRS 269, TGC-NS MRSA (NRS269)) of 2 µg/mL (≈ 4.41 µM). The MIC (S. aureus [5]; Staphylococcus aureus, MRSA / NRS 271, Linezolid-R MRSA (NRS271)) was 0.5 µg/mL (≈ 1.1 µM), the MIC (S. aureus [5]; Staphylococcus aureus, MRSA / NRS 382 / USA100, USA100 MRSA (NRS382)) was 0.5 µg/mL (≈ 1.1 µM) and the MIC (S. aureus [5]; Staphylococcus aureus, MRSA / NRS 383 / USA200, USA200 MRSA (NRS383)) was 1 µg/mL (≈ 2.21 µM). For the same molecule, the MIC (S. aureus [5]; Staphylococcus aureus, MRSA / NRS 384 / USA300, USA300 MRSA (NRS384)) was 0.03 µg/mL (≈ 0.0662 µM), the MIC (S. aureus [5]; Staphylococcus aureus, MRSA / NRS 385 / USA500, USA500 MRSA (NRS385)) was 0.5 µg/mL (≈ 1.1 µM) and the MIC (S. aureus [5]; Staphylococcus aureus, MRSA / NRS 386 / USA700, USA700 MRSA (NRS386)) was 0.25 µg/mL (≈ 0.551 µM). The MIC (S. aureus [5]; Staphylococcus aureus, MRSA / NRS 387 / USA800, USA800 MRSA (NRS387)) was 0.03 µg/mL (≈ 0.0662 µM), the MIC (S. aureus [5]; Staphylococcus aureus, MRSA / NRS 402 / VISA, VISA DAP-NS MRSA (NRS402)) was 1 µg/mL (≈ 2.21 µM) and the MIC (S. aureus [5]; Staphylococcus aureus, MRSA / NRS 483, USA1000 MRSA (NRS483)) was 0.03 µg/mL (≈ 0.0662 µM). It also gave an MIC (S. aureus [5]; Staphylococcus aureus, MRSA / NRS 484, USA1100 MRSA (NRS484)) of 0.03 µg/mL (≈ 0.0662 µM).
